Results from PMC8323099 (Journal of Agricultural and Food Chemistry, 2021).

Biological target: T1, Pru p 1.0101 (Prunus persica, UniProt Q2I6V8)
T1 construct: gene ypr-10
Assay: biochemical

T1 sequence (Q2I6V8 1-160): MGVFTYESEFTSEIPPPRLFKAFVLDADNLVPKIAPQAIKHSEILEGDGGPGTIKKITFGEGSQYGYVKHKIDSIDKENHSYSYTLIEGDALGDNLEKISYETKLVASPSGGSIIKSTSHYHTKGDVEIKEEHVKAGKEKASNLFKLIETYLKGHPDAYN

- Kd: 1900 ± 400 µM
SMILES: C/C(=C\CNc1ncnc2[nH]cnc12)CO [trans-zeatin]
